Assays:
[1] = target: c-KIT (Homo sapiens, UniProt P10721); assay: Biochemical c-KIT activity assay (ADP-Glo); conditions: 20 μM ATP, read-out: IC50 for c-KIT inhibition
Protocol: The enzymatic activities of c-KIT were determined by in vitro kinase assays using the ADP-Glo reagent (Promega, Madison, WI, USA) according to the manufacturer’s instructions. Briefly, 250 ng of c-KIT protein was incubated with compounds in 10 μL of reaction buffer (40 mM Tris−HCl, pH 7.4, 2 mM MnCl2, 2 mM DTT, 20 mM MgCl2, 0.1 mg/mL bovine serum albumin, 1 mM Na3VO4) containing 20 μΜ ATP and 40 μM poly (Glu4-Tyr1) as substrates at 30 °C for 150 min. The ADP-Glo reagent was then added, and the mixture was incubated at 25 °C for 40 min. The kinase detection reagent was added for another 30 min at 25 °C. The converted ADP was determined by luminescence measurement using a Wallac Vector 1420 multilabel counter (PerkinElmer).

[2] = system: four cancer cell lines (K562, KU812, HT-29, HCT116); assay: CCK8 antiproliferative assay, summary over the four cancer cell lines; type: cell-based; conditions: Homo sapiens; range over K562, KU812, HT-29, HCT116; read-out: IC50 against the four cancer cell lines
Protocol: (§1) For all biological assays, all of the synthesized compounds were dissolved in DMSO. The cytotoxicity of all of the target compounds against the HCT116, K562, KU812, and HT-29 cells was determined by an CCK8 assay in vitro using adriamycin and echinatin as the controls. About 3000 cells per well were seeded in a 96-well plate and incubated for 24 h. Then, the cells were stimulated with different concentrations of test compounds for 48 h. The CCK8 solution (100 µL 0.5 mg/mL^−1) was added to each well, and the cells were incubated for another 4 h. Then, the absorbance of the samples was measured at 450 nm. The IC50 values were calculated according to the Logit method after obtaining the inhibitory rate. All experiments were repeated three times.

[3] = system: HCT116 cells; assay: TUNEL staining; type: cell-based, human; conditions: varying concentrations
Protocol: The slides were immersed in 4% paraformaldehyde (pH 7.4) for 25 min at room temperature and then washed with PBS 3 times. The cells were immersed in 0.1% Triton X-100 solution prepared with PBS for 10 min (operation on ice) and then washed twice with PBS. Dilute 5× equilibration buffer with deionized water and 100 µL 1× equilibration buffer were added to each climbing tablet to cover the sample area to be tested, then incubated at room temperature for 15 min. […] The slides were placed in a wet box and incubated at 37 °C for 60 min. The wet box was wrapped with aluminum foil to avoid light. These were then washed three times with PBS with DAPI dripped and incubated in the dark for 5 min. The nucleus of the specimen was stained. Water-absorbent paper was used to absorb the liquid on the climbing sheet, then a sealing liquid containing an anti-fluorescence quenching agent was used to seal the film before the images were observed and collected under a fluorescence microscope.

[4] = system: HCT116 cells; assay: Western blot of c-KIT downstream proteins and caspase-3; type: cell-based, human; conditions: 48 h
Protocol: HCT116 cells were seeded at a density of 4 × 10^5 cells per well and treated with various concentrations of Compound T4 (0, 1.25, 2.5, and 5 µM) for 48 h. After this, cells were collected and washed twice with ice-cold DPBS. The pellets were resuspended in a total protein extraction buffer (20 mM HEPES, 350 mM NaCl, 20% glycerol, 1% NP-40, 1 mM MgCl2, 0.5 mM EDTA, 0.1 mM EGTA, 0.1 mM DTT, 0.1 mM PMSF) containing a protease inhibitor cocktail and incubated on ice for 30 min with intermittent mixing. The protein concentration was measured using the Bradford reagent (Bio-Rad Laboratories Inc., Hercules, CA, USA). An equal amount (20 µg) of protein was loaded on 10% poly acrylamide gels and transferred to a nitrocellulose membrane. After blocking with 5% skimmed milk, the membrane was incubated at 4 °C overnight with specific primary antibodies. The membrane was washed and incubated at room temperature for 1 h with secondary antibodies conjugated with horseradish peroxidase (HRP). Finally, the immunoblot was developed for visualization using a chemiluminescence kit. Primary antibodies for Cleaved-caspase 3, MEK, p-MEK, Erk1/2, p-Erk1/2, mTOR, Akt, p-Akt, and GAPDH and all secondary antibodies were obtained from Santa Cruz Biotechnology (Santa Cruz, CA, USA).

[5] = system: HT-29; assay: CCK8 antiproliferative assay, HT-29; type: cell-based; conditions: Homo sapiens, CCK8, 48 h, mean ± SD, n = 3
Protocol: as §1

[6] = system: CCC-HIE-2; assay: Cytotoxicity toward CCC-HIE-2 cells; type: cell-based, human
[7] = system: K562; assay: CCK8 antiproliferative assay, K562; type: cell-based; conditions: Homo sapiens, CCK8, 48 h, mean ± SD, n = 3
Protocol: as §1

[8] = system: HCT116 cells; assay: Wound healing assay; type: cell-based, human; conditions: 24 h, serum-free medium
Protocol: Five lines were drawn evenly on the back of the 6-well plate and transferred HCT116 cells (1 × 10^6/well) in a 6-well plate until a uniform monolayer of cells formed at the bottom of the 6-well plate. Then, we drew lines on the cells using a 200 μL pipette tip. We then carefully washed the damaged cell monolayer with PBS, then treated with different concentrations of Compound T4, and incubated in serum-free medium for 24 h. We then used an inverted microscope to take photos of the 6-hole plate at the 0 and 24 h time points and used ImageJ for processing and analysis.

[9] = system: HCT116 cells; assay: Cell cycle analysis (PI staining, flow cytometry); type: cell-based, human
Protocol: The effects of Compound T4 on cell cycle progression were verified by using a standard (PI) staining procedure followed by flow cytometry analysis. HCT116 cells were seeded in 6-well plates and incubated for 24 h until the cells adhered. […] Control cells and treated cells were washed twice with PBS, centrifuged (1000 rpm, 5 min), and collected at a final concentration of 50,000 cells. Then, a single cell suspension was fixed in ice-cold 70% (v/v) ethanol overnight at 4 °C. The cells were washed again with PBS. A total of 100 μL RNase A was added and the cells were incubated at 37 °C for 30 min. The cell DNA was stained with 400 μL PI for 30 min. Data collection and analysis were carried out using a flow cytometer (Beckman Coulter cytoFLEX, USA).

[10] = system: HCT116 cells; assay: Intracellular ROS generation (DCFH-DA, flow cytometry); type: cell-based, human; conditions: escalating concentrations
Protocol: Approximately 4 × 10^5 cells per well were seeded in a 6-well plate and incubated for 12 h, then the discarded medium was replaced with fresh medium containing different concentrations of Compound T4 (0 μM, 0.625 μM, 1.25 μM, 2.5 μM, and 5 μM) for 48 h. ROS production was detected by using the peroxide-sensitive fluorescent probe DCFH-DA. After treatment with different concentrations of T4, the cells were incubated with 10 µg/mL DCFH-DA at 37 °C for 20 min. Then, the cells were harvested. Samples were analyzed by flow cytometry (FACS Calibur, Becton-Dickinson, East Rutherford, NJ, USA).

[11] = system: HCT116 cells; assay: Cell colony formation assay; type: cell-based, human; conditions: 1.25, 2.5, 5 µM, 14 d
Protocol: To investigate the effects of echinatin derivatives on the clonogenic potential of HCT116 cells, the colony formation assay was performed as previously described. HCT116 cells were seeded into 6-well plates at 37 °C with 5% CO2 for 24 h and then treated with Compound T4 and echinatin at various concentrations (0 µM, 1.25 µM, 2.5 µM, and 5 µM) for 14 d. Then, cells were stained with crystal violet solution and clone numbers were counted directly with the naked eye.

[12] = system: KU812; assay: CCK8 antiproliferative assay, KU812; type: cell-based; conditions: Homo sapiens, CCK8, 48 h, mean ± SD, n = 3
Protocol: as §1

[13] = system: HCT116; assay: CCK8 antiproliferative assay, HCT116; type: cell-based; conditions: Homo sapiens, HCT-116; CCK8, 48 h, mean ± SD, n = 3
Protocol: as §1

Sequence of c-KIT (P10721 26-976): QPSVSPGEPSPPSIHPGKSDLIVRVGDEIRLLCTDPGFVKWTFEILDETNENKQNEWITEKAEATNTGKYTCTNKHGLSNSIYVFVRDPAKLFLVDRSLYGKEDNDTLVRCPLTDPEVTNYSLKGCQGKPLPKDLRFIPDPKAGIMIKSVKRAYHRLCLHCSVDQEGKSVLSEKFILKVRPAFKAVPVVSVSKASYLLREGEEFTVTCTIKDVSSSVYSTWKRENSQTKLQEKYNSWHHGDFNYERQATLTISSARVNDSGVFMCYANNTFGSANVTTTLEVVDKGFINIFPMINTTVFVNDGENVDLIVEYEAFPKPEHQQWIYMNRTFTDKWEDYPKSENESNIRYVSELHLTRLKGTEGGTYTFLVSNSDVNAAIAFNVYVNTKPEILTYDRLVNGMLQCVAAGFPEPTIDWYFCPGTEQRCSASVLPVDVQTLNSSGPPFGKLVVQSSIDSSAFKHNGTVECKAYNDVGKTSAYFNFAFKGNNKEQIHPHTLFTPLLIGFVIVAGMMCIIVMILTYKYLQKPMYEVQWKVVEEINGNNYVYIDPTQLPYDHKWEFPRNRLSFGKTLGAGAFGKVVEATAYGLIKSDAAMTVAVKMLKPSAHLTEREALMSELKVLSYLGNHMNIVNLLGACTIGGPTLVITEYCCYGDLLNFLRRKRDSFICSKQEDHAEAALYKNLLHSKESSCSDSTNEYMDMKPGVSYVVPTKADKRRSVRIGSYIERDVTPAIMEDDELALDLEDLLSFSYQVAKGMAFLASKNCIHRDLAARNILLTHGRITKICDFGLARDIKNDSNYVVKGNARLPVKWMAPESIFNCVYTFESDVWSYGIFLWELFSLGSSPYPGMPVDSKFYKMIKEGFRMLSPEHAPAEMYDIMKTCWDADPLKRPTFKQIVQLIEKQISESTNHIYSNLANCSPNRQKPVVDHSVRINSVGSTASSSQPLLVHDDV

IC50 [1]: 0.178 µM
IC50 [2]: 1.71 to 8.6 µM
melting point: 180.5 to 181.4 °C
IC50 [5]: 2.87 ± 0.32 µM
IC50 [7]: 8.6 ± 0.61 µM
IC50 [13]: 1.71 ± 0.46 µM
Compound: COc1cc(O)ccc1/C=C/C(=O)c1ccc(OCc2nnc(Nc3ccc(C(F)(F)F)cc3)o2)cc1 [Compound T4, (E)-3-(4-Hydroxy-2-methoxyphenyl)-1-{4-{{5-{[4-(trifluoromethyl)phenyl]amino}-1,3,4-oxadiazol-2-yl}methoxy}phenyl}propenone]
apoptotic cells (TUNEL red fluorescence) [3]: increase in apoptotic cells
expression of the phosphorylated forms of Akt, MEK, Erk1/2, and mTOR ([4]; 1.25, 2.5, 5 μM): significantly downregulated
protein expression levels of Akt, MEK, and Erk1/2 ([4]; 1.25, 2.5, 5 μM): not significantly altered
expression of caspase-3, as a percentage of GAPDH ([4]; upregulated from 24% following T4 treatment (0-5 μM)): 49%
growth of CCC-HIE-2 cells [6]: not significantly influenced
SI (selectivity index) ([6]; CCC-HIE-2 vs HCT116): 16.1
IC50 ([6]; human embryonic intestinal mucosal derived cell line): 27.6 ± 1.37 µM
HCT116 cell migration [8]: strongly inhibited
distribution of cell cycle phase (%): S ([9]; 5 μM, 48 h (control 28.0%)): 16.8%
distribution of cell cycle phase (%): G0/G1 ([9]; 5 μM, 48 h (control 54.7%)): 65.1%
cell cycle arrest ([9]; various concentrations, 48 h): blocked the cell cycle in the G0/G1 phase
generation and accumulation of ROS [10]: concentration-dependent generation and accumulation of ROS
cell colony number [11]: decreased in a dose-dependent manner
IC50 [12]: 8.09 ± 0.91 µM

From publication PMC10889159, “Synthesis and Antitumor Activity Evaluation of Novel Echinatin Derivatives with a 1,3,4-Oxadiazole Moiety” (International Journal of Molecular Sciences, 2024)
